Results as given in US12534452B2, “N-(1H-imidazol-2-yl)benzamide compound and pharmaceutical composition comprising the same as active ingredient” (KAINOS MEDICINE, INC., priority 2019, dated 2026).

These compounds were tested against IRAK4 (Homo sapiens (Human), UniProt Q9NWZ3) (assay: In vitro IRAK4 phosphorylation activity assay). Settings: [γ-33P]-ATP, myelin basic protein substrate, 40 minutes at room temperature; categories.
Sequence of IRAK4 (Q9NWZ3 whole entry): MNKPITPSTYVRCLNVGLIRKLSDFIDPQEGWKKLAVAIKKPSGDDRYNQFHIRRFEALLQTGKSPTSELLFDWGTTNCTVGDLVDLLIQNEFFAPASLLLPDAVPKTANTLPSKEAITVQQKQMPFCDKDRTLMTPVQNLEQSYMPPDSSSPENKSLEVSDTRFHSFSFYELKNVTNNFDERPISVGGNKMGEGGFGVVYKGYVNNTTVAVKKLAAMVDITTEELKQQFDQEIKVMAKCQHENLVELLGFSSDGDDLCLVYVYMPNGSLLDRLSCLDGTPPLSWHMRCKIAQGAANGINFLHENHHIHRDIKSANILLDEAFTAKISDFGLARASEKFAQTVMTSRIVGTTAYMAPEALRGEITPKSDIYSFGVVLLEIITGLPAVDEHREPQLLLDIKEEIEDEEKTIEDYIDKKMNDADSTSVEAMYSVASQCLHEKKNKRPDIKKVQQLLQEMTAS
Assay type: biochemical
Method in brief: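 Radiometric filter-binding assay, no compound–kinase preincubation; 8 mM MOPS pH 7.0, 0.2 mM EDTA, 10 mM Mg acetate, 0.33 mg/mL myelin basic protein substrate, [γ-33P]-ATP. Reaction 40 min at room temperature, stopped with phosphoric acid, scintillation counting; IC50 reported in categories.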
O=C(CCc1cn(Cc2ccccc2)c(NC(=O)c2cccc(-c3cn[nH]c3)c2)n1)Nc1ccccc1 [Example 292, N-(1-benzyl-4-(3-oxo-3-(phenylamino)propyl)-1H-imidazol-2-yl)-3-(1H-pyrazol-4-yl)benzamide] was tested, and the IC50 was greater than 100 nM.
O=C(CCc1cn(-c2cccc(Cl)c2)c(NC(=O)c2cccc(-c3cn[nH]c3)c2)n1)Nc1ccccc1 [Example 293, N-(1-(3-chlorophenyl)-4-(3-oxo-3-(phenylamino)propyl)-1H-imidazol-2-yl)-3-(1H-pyrazol-4-yl)benzamide] gave an IC50 of less than 50 nM.
Compound O=C(CCc1cn(-c2cccc(Br)c2)c(NC(=O)c2cccc(-c3cn[nH]c3)c2)n1)Nc1ccccc1 [Example 294, N-(1-(3-bromophenyl)-4-(3-oxo-3-(phenylamino)propyl)-1H-imidazol-2-yl)-3-(1H-pyrazol-4-yl)benzamide] has an IC50 of 50 to 100 nM.
Work on O=C(CCc1cn(CC2CCCCC2)c(NC(=O)c2cccc(-c3cn[nH]c3)c2)n1)Nc1ccccc1 [Example 295, N-(1-(cyclohexylmethyl)-4-(3-oxo-3-(phenylamino)propyl)-1H-imidazol-2-yl)-3-(1H-pyrazol-4-yl)benzamide] yielded an IC50 greater than 100 nM.
Compound CNC(=O)CCCc1cn(C2CCCCC2)c(NC(=O)c2cccc(-c3cn[nH]c3)c2)n1 [Example 296, N-(1-cyclohexyl-4-(4-(methylamino)-4-oxobutyl)-1H-imidazol-2-yl)-3-(1H-pyrazol-4-yl)benzamide] has an IC50 of less than 50 nM.
CNC(=O)CCCc1cn(-c2ccc(F)cc2)c(NC(=O)c2cccc(-c3cn[nH]c3)c2)n1 [Example 297, N-(1-(4-fluorophenyl)-4-(4-(methylamino)-4-oxobutyl)-1H-imidazol-2-yl)-3-(1H-pyrazol-4-yl)benzamide] was tested, and the IC50 was less than 50 nM.
Compound CNC(=O)CCCc1cn(-c2ccc(F)cc2F)c(NC(=O)c2cccc(-c3cn[nH]c3)c2)n1 [Example 298, N-(1-(2,4-difluorophenyl)-4-(4-(methylamino)-4-oxobutyl)-1H-imidazol-2-yl)-3-(1H-pyrazol-4-yl)benzamide] has an IC50 of 50 to 100 nM.
Compound CN1CCN(C(=O)CCCc2cn(-c3ccc(F)cc3)c(NC(=O)c3cccc(-c4cnn(C)c4)c3)n2)CC1 [Example 299, N-(1-(4-fluorophenyl)-4-(4-(4-methylpiperazin-1-yl)-4-oxobutyl)-1H-imidazol-2-yl)-3-(1-methyl-1H-pyrazol-4-yl)benzamide] has an IC50 of less than 50 nM.
Compound Cn1cc(-c2cccc(C(=O)Nc3nc(CCCC(=O)NC4CC4)cn3-c3ccc(F)cc3)c2)cn1 [Example 300, N-(4-(4-(cyclopropylamino)-4-oxobutyl)-1-(4-fluorophenyl)-1H-imidazol-2-yl)-3-(1-methyl-1H-pyrazol-4-yl)benzamide] has an IC50 of less than 50 nM.
With O=C(Nc1nc(CCCCCCN2CCCCC2)cn1-c1ccc(F)cc1)c1cccc(-c2cn[nH]c2)c1 [Example 301, N-(1-(4-fluorophenyl)-4-(6-(piperidin-1-yl)hexyl)-1H-imidazol-2-yl)-3-(1H-pyrazol-4-yl)benzamide] the IC50 was less than 50 nM.
Work on O=C(Nc1nc(CCCCCCN2CCCCC2)cn1-c1ccc(F)cc1F)c1cccc(-c2cn[nH]c2)c1 [Example 302, N-(1-(2,4-difluorophenyl)-4-(6-(piperidin-1-yl)hexyl)-1H-imidazol-2-yl)-3-(1H-pyrazol-4-yl)benzamide] yielded an IC50 greater than 100 nM.
O=C(CCc1cn(-c2ccncc2)c(NC(=O)c2cccc(-c3cn[nH]c3)c2)n1)Nc1ccccc1 [Example 303, N-(4-(3-oxo-3-(phenylamino)propyl)-1-(pyridin-4-yl)-1H-imidazol-2-yl)-3-(1H-pyrazol-4-yl)benzamide] was tested, and the IC50 was greater than 100 nM.
